Common to all, as to assay type: functional, cell-based
What all share (conditions): Homo sapiens

In one experiment the test system is K562-Tax. The experiment is described as follows: Cytotoxicity against p-glycoprotein positive K562-Tax cells.
Experiment [1] has as its system CCRF-CEM. Put plainly: Cytotoxicity against lung resistance protein positive CEM cells.
Experiment [2] relates to CCRF-CEM. The experiment is described as follows: Inhibition of DNA synthesis in CEM cells at 5 times IC50.
The subject of experiment [3] is CCRF-CEM. Put plainly: Increase in RNA synthesis in CEM cells at IC50.
The subject of experiment [4] is CCRF-CEM. Put plainly: Inhibition of DNA synthesis in CEM cells at IC50.
In experiment [5] the test system is CCRF-CEM. The experiment is described as follows: Inhibition of RNA synthesis in CEM cells at IC50.
Experiment [6] concerns CCRF-CEM. Put plainly: Induction of apoptosis in CEM cells at IC50 after 24 hrs […].

The source made the active and inactive calls. No cut-off for these calls is given here.

Turning to `CCCCCCCCCCOC(c1ccc([N+](=O)[O-])cc1)c1c[nH]c(=O)[nH]c1=O` (stereo not given), the result with K562-Tax and in the experiment on CCRF-CEM [1] was Active.

Turning to `CCCCCCCOC(c1ccc([N+](=O)[O-])cc1)c1c[nH]c(=O)[nH]c1=O` (stereo not given), the outcome in the experiment with K562-Tax, in the experiment with CCRF-CEM [2], in the experiment with CCRF-CEM [3] and in the experiment on CCRF-CEM [1] was Active.

For the molecule `CCCCCCOC(c1ccc([N+](=O)[O-])cc1)c1c[nH]c(=O)[nH]c1=O` (stereo not given), the result in the experiment with CCRF-CEM [4], in the experiment on CCRF-CEM [2], with CCRF-CEM [5] and in the experiment on CCRF-CEM [6] was Active.

Regarding `CCCCCCCCCCCCOC(c1ccc([N+](=O)[O-])cc1)c1c[nH]c(=O)[nH]c1=O` (stereo not given), the outcome with K562-Tax and with CCRF-CEM [1] was Active.

In the case of `CCCCCCCCOC(c1ccc([N+](=O)[O-])cc1)c1c[nH]c(=O)[nH]c1=O` (stereo not given), the outcome in the experiment with K562-Tax, with CCRF-CEM [2], in the experiment on CCRF-CEM [3] and with CCRF-CEM [1] was Active.

Take `CCCCCCCCCCCOC(c1ccc([N+](=O)[O-])cc1)c1c[nH]c(=O)[nH]c1=O` (stereo not given): the outcome in the experiment with K562-Tax and with CCRF-CEM [1] was Active.

Turning to `CCCCCCCCCOC(c1ccc([N+](=O)[O-])cc1)c1c[nH]c(=O)[nH]c1=O` (stereo not given), the outcome in the experiment with K562-Tax and with CCRF-CEM [1] was Active.
